Assay [1] deals with T1, Spermidine synthase (Rattus norvegicus) (UniProt Q99MI5).
T1 sequence (whole entry): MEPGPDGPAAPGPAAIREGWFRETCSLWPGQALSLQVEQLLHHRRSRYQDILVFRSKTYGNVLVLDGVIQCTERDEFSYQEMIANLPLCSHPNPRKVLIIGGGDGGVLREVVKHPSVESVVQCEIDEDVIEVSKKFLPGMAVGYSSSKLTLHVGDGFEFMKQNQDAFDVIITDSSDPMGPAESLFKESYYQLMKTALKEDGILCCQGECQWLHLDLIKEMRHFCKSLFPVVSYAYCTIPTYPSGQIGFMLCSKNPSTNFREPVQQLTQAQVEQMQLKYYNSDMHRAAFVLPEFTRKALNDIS
Description: Inhibition of spermidine synthase at 50 uM concentration of the compound; values are per cent of control.

Assay [2] deals with T1, Spermidine synthase (Rattus norvegicus). As to the kind of experiment: Inhibition of spermidine synthase at 25 uM concentration of the compound; values are per cent of control.
Assay [3] has the same target. Description: Inhibition of spermidine synthase at 100 uM concentration of the compound; values are per cent of control.
The target is the same in assay [4]. As to the kind of experiment: Inhibition of spermidine synthase at 10 uM concentration of the compound; values are per cent of control.
Assay [5] deals with T2, Spermidine synthase (Rattus norvegicus, UniProt Q99MI5).
T2 sequence (Q99MI5 whole entry): T1 sequence (whole entry)
Description: Inhibitory activity against spermidine synthase. The conditions noted are these: read-out: I50.

Assay [6] relates to spermine synthase (Rattus norvegicus). As to the kind of experiment: Inhibition of spermine synthase at 100 uM concentration of the compound; values are per cent of control.
The test system is the same in assay [7]. Description: Inhibition of spermine synthase at 50 uM concentration of the compound; values are per cent of control.
For assay [8] the test system is unchanged. Description: Inhibition of spermine synthase at 250 uM concentration of the compound; values are per cent of control.
The test system is the same in assay [9]. As to the kind of experiment: Inhibition of spermine synthase at 10 uM concentration of the compound; values are per cent of control.
The target of assay [10] is T1, Spermidine synthase (Rattus norvegicus). Description: Inhibition of spermidine synthase at 5 uM concentration of the compound; values are per cent of control.
Assay [11] has the same target. Description: Inhibition of spermidine synthase at 250 uM concentration of the compound; values are per cent of control.
The subject of assay [12] is spermine synthase (Rattus norvegicus). Description: Inhibition of spermine synthase at 25 uM concentration of the compound; values are per cent of control.

As to `NCCCCCC(CCN)SC[C@H]1O[C@@H](n2cnc3c(N)ncnc32)[C@H](O)[C@@H]1O` (stereo partly drawn), the residual activity in assay [1] amounted to 1%; in assay [2], 3%; in assay [3], 1%; in assay [4] it was 3%.
As for `CCCCCC(CC)SC[C@H]1OC(n2cnc3c(N)ncnc32)[C@H](O)[C@@H]1O` (stereo partly drawn), the residual activity in [2] was 102%; in [3], 104%.
As to `C[S+](C[C@H]1O[C@H](n2cnc3c(N)ncnc32)[C@H](O)[C@@H]1O)C(CCN)CCCCCN` (stereo partly drawn), the IC50 in assay [5] worked out at 15 µM. The residual activity was found to be 41% in assay [6]; 16% in assay [1]; 60% in assay [7]; 14% in [8]; 31% in [2]; 93% in assay [9]. Besides, the residual activity in assay [3] is 8%; in assay [10], 84%; in assay [11], 4%; in assay [4], 68%.
Regarding `CCCCCC(CC)[S+](C)C[C@H]1O[C@H](n2cnc3c(N)ncnc32)[C@H](O)[C@@H]1O` (stereo partly drawn), in [5], the IC50 stood at 250 µM. Besides, the residual activity in [6] came to 44%; in assay [1], 93%; in assay [7], 65%; in assay [8] it was 25%; in assay [2] it was 99%; in assay [9], 94%. Moreover, the residual activity in assay [3] stood at 80%; in assay [12], 88%; in [11], 56%; in assay [4], 98%.

What is called residual activity is the signal under treatment as a percentage of the control signal.

The record behind these values is ChEMBL document CHEMBL1121737, “Synthesis and evaluation of some stable multisubstrate adducts as specific inhibitors of spermidine synthase” (J Med Chem, 1981).
